In patent US8124793B2, “Derivatives of ethylene methanedisulfonate as cancer chemotherapeutic agents” (priority 2007, dated 2012):

Key:
[1] = tested on: BT-549; experiment: NCI screen, growth of human tumor cells: Breast Cancer BT-549; format: cell-based
Procedure, shortened: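 Percent-growth read-out from the NCI cancer cell screen; data annotated by cancer type and molar concentration, ≥60 points per compound.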

[2] = tested on: human cancer cells; experiment: NCI screen summary over the cancers tested (negative growth of human cancer cells); format: cell-based; settings: 10^−4 M conc.; cancers with negative growth / cancers tested
Experimental: In the NCI screening process, each compound was tested and described by a minimum of 60 data points. The test data include, but are not limited to the type of cancer, the molar concentration used in the screen, and the percent growth of the cancer. In some cases, NMR and elemental analysis were used for structural assignment.
The derivatives in the tables are grouped using the same category as in the tables 1-6.

- melting point: 82 to 90 °C
Structure (SMILES): O=S1(=O)OCCOS(=O)(=O)C1(F)Br [NSC 665943, ethylene fluorobromomethanedisulfonate]
- % Growth ([1]; BT-549, 10^−4 molar): 12%
- % Growth ([1]; BT-549, 10^−5 molar): 28%
- % Growth ([1]; BT-549, 10^−6 molar): 52%
- % Growth ([1]; BT-549, 10^−7 molar): 42%
- % Growth ([1]; BT-549, 10^−8 molar): 44%
- Percentage of cancers showing negative growth cancers tested [2]: 10^−4 M conc. = 0/1 = 0%
